Patent US20250268854A1, “2-AMINO-5,5-DIMETHYLHEXANOIC ACID DERIVATIVES AS SORTILIN MODULATORS FOR USE IN THE TREATMENT OF DISEASE OF THE CENTRAL NERVOUS SYSTEM” (c/o Vesper Bio ApS, priority 2021, published 2025)
pIC50: −log10 of the molar value. Where a name gives a salt, the structure may show the parent alone.

Molecular target: h-Sortilin (Homo sapiens (Human), UniProt Q99523)
Experiment: Neurotensin (NTS) scintillation proximity assay (SPA): displacement of [3H]-neurotensin binding
Conditions: 150 nM 6his-Sortilin, 5 nM [3H]-Neurotensin; average of at least 2 determinations
Protocol: The exemplified compounds of the invention were tested in a Neurotensin (NTS) scintillation proximity assay (SPA). NTS, which is a 13 amino acid neuropeptide, is a sortilin ligand. The IC50 is a measure of the amount of the compound required to inhibit the binding of NTS to sortilin by 50%. […] Compound affinity was determined by measuring the displacement of [^3H]-neurotensin binding to h-Sortilin in SPA format. […] IC50 values were calculated by nonlinear regression using the sigmoid concentration-response (variable slope) using CDD Vault software. All values reported are average of at least 2 determinations.

Chain of h-Sortilin (Q99523 78-831): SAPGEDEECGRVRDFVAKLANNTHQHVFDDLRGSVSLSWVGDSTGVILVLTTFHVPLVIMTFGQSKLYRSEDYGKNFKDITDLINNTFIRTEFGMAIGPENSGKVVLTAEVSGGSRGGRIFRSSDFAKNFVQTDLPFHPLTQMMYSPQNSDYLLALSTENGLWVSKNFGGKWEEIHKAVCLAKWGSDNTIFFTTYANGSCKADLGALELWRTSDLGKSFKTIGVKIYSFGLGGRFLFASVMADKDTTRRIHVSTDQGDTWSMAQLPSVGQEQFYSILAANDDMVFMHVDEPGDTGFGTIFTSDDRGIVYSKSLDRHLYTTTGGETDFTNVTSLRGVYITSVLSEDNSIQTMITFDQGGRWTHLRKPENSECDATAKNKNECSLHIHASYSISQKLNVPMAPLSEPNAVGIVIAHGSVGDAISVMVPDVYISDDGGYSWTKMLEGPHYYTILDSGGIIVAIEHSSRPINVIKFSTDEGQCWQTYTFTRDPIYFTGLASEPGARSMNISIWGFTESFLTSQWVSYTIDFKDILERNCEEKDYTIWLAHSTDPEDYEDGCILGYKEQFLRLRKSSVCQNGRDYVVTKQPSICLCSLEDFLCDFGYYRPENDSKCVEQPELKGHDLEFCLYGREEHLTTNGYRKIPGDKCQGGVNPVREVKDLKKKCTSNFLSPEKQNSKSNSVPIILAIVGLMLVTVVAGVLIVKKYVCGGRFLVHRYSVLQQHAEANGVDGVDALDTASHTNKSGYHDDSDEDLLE

Row | Compound | pIC50
1 | Cc1cc(=O)oc2c(CN[C@@H](CCC(C)(C)C)C(=O)O)c(O)ccc12 [Example 1, (S)-2-(((7-hydroxy-4-methyl-2-oxo-2H-chromen-8-yl)methyl)amino)-5,5-dimethylhexanoic acid] | 7.12
2 | Cc1cc2cccc(CN[C@@H](CCC(C)(C)C)C(=O)O)c2cn1 [Example 4, (2S)-5,5-dimethyl-2-{[(3-methylisoquinolin-8-yl)methyl]amino}hexanoic acid] | 6.18
3 | CC(C)(C)CC[C@H](NCc1cccc2ccncc12)C(=O)O [Example 7, (2S)-2-{[(isoquinolin-8-yl)methyl]amino}-5,5-dimethylhexanoic acid] | 6.02
4 | CC(C)(C)CC[C@H](NC(c1ccccc1)c1ccccc1)C(=O)O [Example 8, (S)-2-(benzhydrylamino)-5,5-dimethylhexanoic acid hydrochloride] | 6.57
5 | CC(C)(C)CC[C@H](NCc1ccccc1OC(F)(F)F)C(=O)O [Example 10, (2S)-5,5-dimethyl-2-({[2-(trifluoromethoxy)phenyl]methyl}amino)hexanoic acid] | 6.01
6 | CC(C)(C)CC[C@H](NCc1ccccc1F)C(=O)O [Example 11, (2S)-2-{[(2-fluorophenyl)methyl]amino}-5,5-dimethylhexanoic acid] | 5.74
7 | CC(C)(C)CC[C@H](NCc1c(F)cccc1F)C(=O)O [Example 12, (2S)-2-{[(2,6-difluorophenyl)methyl]amino}-5,5-dimethylhexanoic acid] | 5.55
8 | CC(C)(C)CC[C@H](NCc1ccccc1C(F)(F)F)C(=O)O [Example 13, (2S)-5,5-dimethyl-2-({[2-(trifluoromethyl)phenyl]methyl}amino)hexanoic acid] | 5.99
9 | C[C@@H](N[C@@H](CCC(C)(C)C)C(=O)O)c1ccccc1 [Example 14, (S)-5,5-dimethyl-2-(((R)-1-phenylethyl)amino)hexanoic acid hydrochloride] | 6.21
10 | C[C@H](N[C@@H](CCC(C)(C)C)C(=O)O)c1ccccc1 [Example 15, (S)-5,5-dimethyl-2-(((S)-1-phenylethyl)amino)hexanoic acid hydrochloride] | 5.46
11 | CC(C)(C)CC[C@H](N[C@@H](c1ccccc1)C(F)(F)F)C(=O)O [Example 16, (S)-5,5-dimethyl-2-(((S)-2,2,2-trifluoro-1-phenylethyl)amino)hexanoic acid] | 5.83
12 | CC(C)(C)CC[C@H](N[C@@H](c1ccccc1)C(F)F)C(=O)O [Example 17, (2S)-2-{[(1S)-2,2-difluoro-1-phenylethyl]amino}-5,5-dimethylhexanoic acid] | 5.79
13 | CC(C)(C)CC[C@H](N[C@H](c1ccccc1)C(F)(F)F)C(=O)O [Example 18, (S)-5,5-dimethyl-2-(((R)-2,2,2-trifluoro-1-phenylethyl)amino)hexanoic acid] | 6.14
14 | CC(C)(C)CC[C@H](N[C@H](c1ccccc1)C(F)F)C(=O)O [Example 19, (2S)-2-{[(1R)-2,2-difluoro-1-phenylethyl]amino}-5,5-dimethylhexanoic acid] | 6.25
15 | CC(C)(C)CC[C@H](NC1=Nc2ccccc2Oc2ccccc21)C(=O)O [Example 20, (2S)-5,5-dimethyl-2-({2-oxa-9-azatricyclo[9.4.0.0^3,8]pentadeca-1(11),3(8),4,6,9,12,14-heptaen-10-yl}amino)hexanoic acid] | 5.83
16 | CC(C)(C)CC[C@H](NCc1cccc(CO)c1)C(=O)O [Example 25, (2S)-2-({[3-(hydroxymethyl)phenyl]methyl}amino)-5,5-dimethylhexanoic acid] | 5.86
17 | CC(C)(C)CC[C@H](NCc1cc(Cl)cc(Cl)c1)C(=O)O [Example 32, (2S)-2-{[(3,5-dichlorophenyl)methyl]amino}-5,5-dimethylhexanoic acid] | 6.08
18 | CC(C)(C)CC[C@H](NCc1ccc2ccccc2n1)C(=O)O [Example 36, (2S)-5,5-dimethyl-2-{[(quinolin-2-yl)methyl]amino}hexanoic acid] | 5.80
19 | COc1ccc(CN[C@@H](CCC(C)(C)C)C(=O)O)cc1F [Example 37, (2S)-2-{[(3-fluoro-4-methoxyphenyl)methyl]amino}-5,5-dimethylhexanoic acid] | 6.15
20 | CC(C)(C)CC[C@H](NCc1cccc2c1CCCC2)C(=O)O [Example 39, (2S)-5,5-dimethyl-2-{[(5,6,7,8-tetrahydronaphthalen-1-yl)methyl]amino}hexanoic acid] | 6.44
21 | CC(C)(C)CC[C@H](NCc1ccc2nccnc2c1)C(=O)O [Example 42, (2S)-5,5-dimethyl-2-{[(quinoxalin-6-yl)methyl]amino}hexanoic acid] | 6.40
22 | CC(C)(C)CC[C@H](NCc1cnc2[nH]ccc2c1)C(=O)O [Example 43, (2S)-5,5-dimethyl-2-[({1H-pyrrolo[2,3-b]pyridin-5-yl}methyl)amino]hexanoic acid] | 6.33
23 | CC(C)(C)CC[C@H](NCc1ccnc2[nH]ccc12)C(=O)O [Example 44, (2S)-5,5-dimethyl-2-[({1H-pyrrolo[2,3-b]pyridin-4-yl}methyl)amino]hexanoic acid] | 6.07
24 | CC(C)(C)CC[C@H](NCc1cccc2cccnc12)C(=O)O [Example 47, (2S)-5,5-dimethyl-2-{[(quinolin-8-yl)methyl]amino}hexanoic acid] | 5.71
25 | CC(C)(C)CC[C@H](NCc1cccc2ncccc12)C(=O)O [Example 48, (2S)-5,5-dimethyl-2-{[(quinolin-5-yl)methyl]amino}hexanoic acid] | 5.97

Row | Compound | pIC50
26 | COc1ccc2ccccc2c1CN[C@@H](CCC(C)(C)C)C(=O)O [Example 49, (2S)-2-{[(2-methoxynaphthalen-1-yl)methyl]amino}-5,5-dimethylhexanoic acid] | 5.70
27 | CC(C)(C)CC[C@H](NCc1ccc2scnc2c1)C(=O)O [Example 51, (2S)-2-{[(1,3-benzothiazol-5-yl)methyl]amino}-5,5-dimethylhexanoic acid] | 6.49
28 | Cn1nccc1CN[C@@H](CCC(C)(C)C)C(=O)O [Example 52, (2S)-5,5-dimethyl-2-{[(1-methyl-1H-pyrazol-5-yl)methyl]amino}hexanoic acid] | 5.81
29 | CC(C)(C)CC[C@H](NCc1ccc2ncsc2c1)C(=O)O [Example 53, (2S)-2-{[(1,3-benzothiazol-6-yl)methyl]amino}-5,5-dimethylhexanoic acid] | 6.23
30 | Cn1ncc2ccc(CN[C@@H](CCC(C)(C)C)C(=O)O)cc21 [Example 54, (2S)-5,5-dimethyl-2-{[(1-methyl-1H-indazol-6-yl)methyl]amino}hexanoic acid] | 6.06
31 | CC(C)(C)CC[C@H](NCc1ccccc1-c1ccncc1)C(=O)O [Example 56, (2S)-5,5-dimethyl-2-({[2-(pyridin-4-yl)phenyl]methyl}amino)hexanoic acid] | 5.72
32 | CC(C)(C)CC[C@H](NCc1cccc(-n2ccnc2)c1)C(=O)O [Example 57, (2S)-2-({[3-(1H-imidazol-1-yl)phenyl]methyl}amino)-5,5-dimethylhexanoic acid] | 5.89
33 | CC(C)(C)CC[C@H](NCc1ccncc1)C(=O)O [Example 58, (2S)-5,5-dimethyl-2-{[(pyridin-4-yl)methyl]amino}hexanoic acid] | 6.09
34 | CC(C)(C)CC[C@H](NCc1ccccc1CO)C(=O)O [Example 59, (S)-2-((2-(hydroxymethyl)benzyl)amino)-5,5-dimethylhexanoic acid hydrochloride] | 5.89
35 | Cn1ncc2c(CN[C@@H](CCC(C)(C)C)C(=O)O)cccc21 [Example 61, (2S)-5,5-dimethyl-2-{[(1-methyl-1H-indazol-4-yl)methyl]amino}hexanoic acid] | 5.55
36 | CC(C)(C)CC[C@H](NCc1cccc2[nH]ccc12)C(=O)O [Example 62, (2S)-2-{[(1H-indol-4-yl)methyl]amino}-5,5-dimethylhexanoic acid] | < 5.00
37 | Cn1ccc2ccc(CN[C@@H](CCC(C)(C)C)C(=O)O)cc21 [Example 67] | 5.48
38 | Cn1ccc2cccc(CN[C@@H](CCC(C)(C)C)C(=O)O)c21 [Example 68] | 5.92
39 | CC(C)(C)CC[C@H](NCc1cccnc1)C(=O)O [Example 71, (2S)-5,5-dimethyl-2-{[(pyridin-3-yl)methyl]amino}hexanoic acid] | 5.95
40 | Cc1ccc(CN[C@@H](CCC(C)(C)C)C(=O)O)cn1 [Example 72] | 5.91
41 | CC(C)(C)CC[C@H](NCc1ccc(Cl)cc1)C(=O)O [Example 76, (2S)-2-{[(4-chlorophenyl)methyl]amino}-5,5-dimethylhexanoic acid] | 6.10
42 | CC(C)(C)CC[C@H](NCc1cncc(Br)c1)C(=O)O [Example 77, (2S)-2-{[(5-bromopyridin-3-yl)methyl]amino}-5,5-dimethylhexanoic acid] | 6.22
43 | COc1ccc(CN[C@@H](CCC(C)(C)C)C(=O)O)c2ccccc12 [Example 79] | 6.02
44 | CC(C)(C)CC[C@H](NCc1cncc2ccccc12)C(=O)O [Example 80] | 6.10
45 | CC(C)(C)CC[C@H](NCc1cccc2cnccc12)C(=O)O [Example 81] | 6.10
46 | Cc1cccc(CN[C@@H](CCC(C)(C)C)C(=O)O)c1C [Example 83, (2S)-2-{[(2,3-dimethylphenyl)methyl]amino}-5,5-dimethylhexanoic acid] | 6.15
47 | COc1ccc2cc(CN[C@@H](CCC(C)(C)C)C(=O)O)ccc2c1 [Example 85] | 5.98
48 | COc1cncc(CN[C@@H](CCC(C)(C)C)C(=O)O)c1 [Example 86] | 6.10
49 | COc1cc(CN[C@@H](CCC(C)(C)C)C(=O)O)ccn1 [Example 87] | 6.28
50 | CC(C)(C)CC[C@H](NCc1ccnc(Cl)c1F)C(=O)O [Example 89, (2S)-2-{[(2-chloro-3-fluoropyridin-4-yl)methyl]amino}-5,5-dimethylhexanoic acid] | 6.10
